Test results taken from publication PMC12040169 (PLOS Biology, 2025).

Test: in vitro
Settings: human, hela cells, % viability

| Structure (SMILES) | viability at 28.5 h, 10 µM [%] | viability at 28.5 h, 10 µM (bulk resorufin, single well) [%] |
| --- | --- | --- |
| C=CCn1oc(=O)n(-c2ccc(OC)cc2)c1=O [CBK122773] | 89.4 | – |
| Cc1cc(NCc2ccc(C(C)C)cc2)c2ccccc2n1 [CBK122786] | 91.7 | – |
| Cc1ccc(S(=O)(=O)N2CCOCC2)cc1-c1cncc(-c2ccc(O)cc2)n1 [CBK123789] | 103 | – |
| O=C(c1ccc(-c2cncc(-c3ccc(O)cc3)n2)cc1Cl)N1CCOCC1 [CBK123790] | 94 | – |
| Oc1ccc(-c2cncc(-c3ccc(F)cc3)n2)cc1 [CBK123794] | 93.7 | – |
| Nc1ncc(-c2ccc(CN3CCOCC3)cc2)nc1-c1ccc(O)cc1 [CBK123798] | 93.9 | – |
| COC(=O)/C=C/c1cccc(-c2cnc(N)c(-c3ccc(O)cc3)n2)c1 [CBK125689] | 83.7 | – |
| CN1CCN(C(=O)c2ccc(Cl)cc2)CC1 [CBK126096] | 104 | – |
| c1ccc(CC2CCN(Cc3cccnc3)CC2)cc1 [CBK126381] | 95.9 | – |
| C(=C\c1ccccc1)/CN1CCC(Cc2ccccc2)CC1 [CBK126384] | 119 | – |
| O=c1cc(CN2CCC(Cc3ccccc3)CC2)[nH]c(=O)[nH]1 [CBK126388] | 104 | – |
| COc1cc2c(cc1OC)CN(Cc1nc3ccccc3[nH]1)CC2 [CBK126390] | 91 | – |
| COc1cc2c(cc1OC)CN(Cc1cc(=O)[nH]c(=O)[nH]1)CC2 [CBK126393] | 103 | – |
| O=c1cc(CN2CCc3ccccc3C2)[nH]c(=O)[nH]1 [CBK126401] | 94 | – |
| COc1ccc(Cl)cc1N1CCN(Cc2ccc(OC(F)(F)F)cc2)CC1 [CBK126405] | 104 | – |
| COc1ccc(Cl)cc1N1CCN(Cc2cc(OC)c(OC)c(OC)c2)CC1 [CBK126406] | 43.3 | – |
| COc1ccc(Cl)cc1N1CCN(Cc2ccc(C(C)C)cc2)CC1 [CBK126407] | 97.6 | – |
| COc1ccc(Cl)cc1N1CCN(Cc2ccc3ccccc3c2)CC1 [CBK126414] | 116 | – |
| COc1ccc(Cl)cc1N1CCN(C/C=C/c2ccccc2)CC1 [CBK126415] | 90.3 | – |
| FC(F)(F)c1cccc(CN2CCN(CCc3ccccc3)CC2)c1 [CBK126421] | 99.7 | – |
| Fc1cccc(F)c1CN1CCN(CCc2ccccc2)CC1 [CBK126422] | 89.9 | – |
| Cc1cc(CN2CCN(CCc3ccccc3)CC2)no1 [CBK126426] | 85.8 | – |

| Structure (SMILES) | viability at 28.5 h, 10 µM [%] | viability at 28.5 h, 10 µM (bulk resorufin, single well) [%] |
| --- | --- | --- |
| NC(=O)CN1CCN(CCc2ccccc2)CC1 [CBK126429] | 88.4 | – |
| O=C1NC(=O)C(CCCCN2CCC(Cc3ccccc3)CC2)N1 (stereo not shown) [CBK126435] | 91.8 | – |
| Cc1nc(CN2CCC(Cc3ccccc3)CC2)cs1 [CBK126438] | 95.7 | – |
| COc1cc2c(cc1OC)CN(Cc1csc(C)n1)CC2 [CBK126443] | 93.4 | – |
| COc1ccc(Cl)cc1N1CCN(CCN2CCCCC2)CC1 [CBK126445] | 100 | – |
| COc1ccc(Cl)cc1N1CCN(CCCCC2NC(=O)NC2=O)CC1 (stereo not shown) [CBK126448] | 89.4 | – |
| COc1cccc(CN2CCN(CCc3ccccc3)CC2)c1 [CBK126454] | 90.5 | – |
| Cc1nc(CN2CCN(CCc3ccccc3)CC2)cs1 [CBK126457] | 87.6 | – |
| COc1ccc(CN2CCCc3ccccc32)cc1 [CBK126458] | 95.6 | – |
| CCOC(=O)CN(Cc1ccccc1)Cc1cccc(OC)c1 [CBK126459] | 96.4 | – |
| O=[N+]([O-])c1cccc(-c2ccc(OC3CCNCC3)cc2)c1 [CBK126465T] | 98.8 | – |
| CCc1nnc(NS(=O)(=O)c2ccc(NCc3cc(Cl)cc(Cl)c3O)cc2)s1 [CBK126494] | 112 | – |
| COc1ccc(CCNC(=O)c2cccc(-c3ccc(OC4CCNCC4)cc3)n2)cc1OC [CBK126548T] | 91.7 | – |
| CCC1(CC)OC(NC2CCCc3ccccc32)=NC1=O (stereo not shown) [CBK126555] | 99.1 | – |
| CCC1(CC)OC(N[C@@H](C)c2ccc(Br)cc2)=NC1=O [CBK126665] | 102 | – |
| CCC1(CC)OC(N[C@@H](C)c2ccc(Cl)cc2)=NC1=O [CBK126666] | 93.2 | – |
| COc1cc(CN2CCC3(CC2)CN(S(C)(=O)=O)c2ccccc23)cc(OC)c1OC [CBK126669] | 100 | – |
| CS(=O)(=O)N1CC2(CCN(Cc3cc(=O)[nH]c(=O)[nH]3)CC2)c2ccccc21 [CBK126679] | 103 | – |
| COc1ccc(OCCN2CCC3(CC2)CN(S(C)(=O)=O)c2ccccc23)cc1 [CBK126681] | 95.5 | – |
| CS(=O)(=O)N1CC2(CCN(CCCCC3NC(=O)NC3=O)CC2)c2ccccc21 (stereo not shown) [CBK126684] | 97.1 | – |
| CN(C)C(=O)CN1CCC2(CC1)CN(S(C)(=O)=O)c1ccccc12 [CBK126686] | 97.7 | – |
| Cc1nc(CN2CCC3(CC2)CN(S(C)(=O)=O)c2ccccc23)cs1 [CBK126687] | 96.3 | – |

| Structure (SMILES) | viability at 28.5 h, 10 µM [%] | viability at 28.5 h, 10 µM (bulk resorufin, single well) [%] |
| --- | --- | --- |
| CCNC(=O)N1CC2(CCN(Cc3ccc(OC(F)(F)F)cc3)CC2)c2ccccc21 [CBK126688] | 115 | – |
| CCNC(=O)N1CC2(CCN(Cc3cc(OC)c(OC)c(OC)c3)CC2)c2ccccc21 [CBK126689] | 96.5 | – |
| CCNC(=O)N1CC2(CCN(Cc3ccc(Cl)c(Cl)c3)CC2)c2ccccc21 [CBK126690] | 95.4 | – |
| CCNC(=O)N1CC2(CCN(Cc3ccc4ccccc4c3)CC2)c2ccccc21 [CBK126696] | 90 | – |
| CCNC(=O)N1CC2(CCN(CC(N)=O)CC2)c2ccccc21 [CBK126701] | 95.3 | – |
| CCNC(=O)N1CC2(CCN(CCCCC3NC(=O)NC3=O)CC2)c2ccccc21 (stereo not shown) [CBK126707] | 92.2 | – |
| CCNC(=O)N1CC2(CCN(CCSC)CC2)c2ccccc21 [CBK126709] | 101 | – |
| CCNC(=O)N1CC2(CCN(Cc3csc(C)n3)CC2)c2ccccc21 [CBK126712] | 103 | – |
| CC(C)C(=O)N1CC2(CCN(Cc3ccc(Cl)c(Cl)c3)CC2)c2ccccc21 [CBK126715] | 94.7 | – |
| CC(C)C(=O)N1CC2(CCN(Cc3nc4ccccc4[nH]3)CC2)c2ccccc21 [CBK126719] | 110 | – |
| CC(C)C(=O)N1CC2(CCN(Cc3ncc[nH]3)CC2)c2ccccc21 [CBK126731] | 109 | – |
| CSc1cc(-c2ccc(Cl)cc2)c(C(=O)O)s1 [CBK126740] | 80.3 | – |
| Cc1ccc(C(=O)O)c(NC(=O)c2ccccc2F)c1 [CBK126744] | 98.9 | – |
| CN1CCN(C(=O)c2ccc(-c3cncc(-c4ccc(O)cc4)n3)c(F)c2)CC1 [CBK126752] | 100 | – |
| CCC1(CC)OC(N[C@@H](CO)c2ccccc2)=NC1=O [CBK126756] | 92.8 | – |
| OCCN1CC2(CCN(Cc3ncc[nH]3)CC2)c2ccccc21 [CBK126763] | 102 | – |
| OCCN1CC2(CCN(CCN3CCOCC3)CC2)c2ccccc21 [CBK126766] | 91.4 | – |
| CSCCN1CCC2(CC1)CN(CCO)c1ccccc12 [CBK126771] | 94.6 | – |
| NC(=O)CN1CC2(CCN(Cc3cccc(C(F)(F)F)c3)CC2)c2ccccc21 [CBK126776] | 93.1 | – |
| NC(=O)CN1CC2(CCN(CCc3c[nH]c4ccccc34)CC2)c2ccccc21 [CBK126784] | 93.3 | – |
| NC(=O)CN1CCC2(CC1)CN(CC(N)=O)c1ccccc12 [CBK126789] | 100 | – |
| CCN1CCC2(CC1)CN(CC(N)=O)c1ccccc12 [CBK126798] | 80.4 | – |

| Structure (SMILES) | viability at 28.5 h, 10 µM [%] | viability at 28.5 h, 10 µM (bulk resorufin, single well) [%] |
| --- | --- | --- |
| CC1(C)Cc2c(sc(NC(=O)c3ccccc3Cl)c2C(=O)O)CO1 [CBK126806] | 99.4 | – |
| COc1ccc(Nc2nc(-c3cccnc3)cs2)c(OC)c1 [CBK126814] | 92.6 | – |
| O=C1NC(=O)C(=Cc2cccc(OCCOc3ccc([N+](=O)[O-])cc3)c2)C(=O)N1 [CBK126857] | – | 95.7 |
| O=S(=O)(c1ccc(-c2cncc(-c3ccc(O)cc3)n2)cc1F)N1CCOCC1 [CBK126903] | 94.3 | – |
| Cc1ccc2nc(C)cc(NCCO)c2c1 [CBK126909] | 104 | – |
| CCCCc1c(C)nc2ccc(Br)cc2c1SCCC(=O)O [CBK126915] | 93.4 | – |
| O=C(O)CSc1ccc(Br)c2cccc(C(=O)O)c12 [CBK126919] | 99.2 | – |
| O=C(O)CCNc1ncnc2ccccc12 [CBK126920] | 99.4 | – |
| CN(C)CCCNC(=O)C1CCN(c2cncc(-c3ccc(O)cc3)n2)CC1 [CBK126929T] | 94.1 | – |
| O=C(N1CCOCC1)N1CCN(c2cncc(-c3ccc(O)cc3)n2)CC1 [CBK126946T] | 96.6 | – |
| CC(=O)N1CCN(c2cncc(-c3ccc(O)cc3)n2)CC1 [CBK126948T] | 88.9 | – |
| Nc1cccc(-c2ccc(OC3CCNCC3)cc2)c1 [CBK126959T] | 83.9 | – |
| CC(C)n1c(SCC(=O)Nc2nc(C(C)(C)C)cs2)nc2c1c(=O)n(C)c(=O)n2C [CBK127417] | 104 | – |
| O=C(c1ccc(OC(F)(F)F)cc1)N1CCC2(CCN(C(=O)c3cc(F)c(F)cc3F)C2)C1 (stereo not shown) [CBK131384] | 108 | – |
| NS(=O)(=O)c1ccc(C(=O)N2CCC3(CCN(C(=O)c4cc(F)c(F)cc4F)C3)C2)cc1 (stereo not shown) [CBK131385] | 104 | – |
| O=C(c1cc(F)c(F)cc1F)N1CCC2(CCN(C(=O)C3COc4ccccc4O3)C2)C1 (stereo not shown) [CBK131390] | 107 | – |
| O=C(c1ccc2ncccc2c1)N1CCC2(CCN(C(=O)c3cc(F)c(F)cc3F)C2)C1 (stereo not shown) [CBK131391] | 91 | – |
| O=C(c1ccc2c(c1)OCCO2)N1CCC2(CCN(C(=O)c3cc(F)c(F)cc3F)C2)C1 (stereo not shown) [CBK131410] | 98.2 | – |
| NS(=O)(=O)c1ccc(C(=O)N2CCC3(CCN(C(=O)Cc4c[nH]c5ccccc45)C3)C2)cc1 (stereo not shown) [CBK131425] | 100 | – |
| O=C(Cc1c[nH]c2ccccc12)N1CCC2(CCN(C(=O)c3ccc4[nH]c(=O)[nH]c4c3)C2)C1 (stereo not shown) [CBK131452] | 90.8 | – |
| O=C(Cc1c[nH]c2ccccc12)N1CCC2(CCN(C(=O)c3cccnc3)C2)C1 (stereo not shown) [CBK131453] | 80.6 | – |
| CC(C)C(=O)N1CC2(CCN(CCCCC3NC(=O)NC3=O)CC2)c2ccccc21 (stereo not shown) [CBK131471] | 111 | – |
